We go through 50 molecules from ChEMBL document CHEMBL4330134, “Design, synthesis, and bioevaluation of a novel class of (E)-4-oxo-crotonamide derivatives as potent antituberculosis agents” (Bioorg Med Chem Lett, 2019).

≈ marks a conversion by molar mass, not a printed value.

Data set [1] concerns Mycobacterium tuberculosis. Description: Antimycobacterial activity against Mycobacterium tuberculosis isolate 19805 after 4 days by microplate Alamar blue assay. In kind it is functional. To be noted: isolate 19805, 96 h.
Data set [2] relates to Mycobacterium tuberculosis. Description: Antimycobacterial activity against Mycobacterium tuberculosis isolate 19874 after 4 days by microplate Alamar blue assay. The format is functional. To be noted: isolate 19874, 96 h.
The test system of data set [3] is Mycobacterium tuberculosis. Description: Antimycobacterial activity against Mycobacterium tuberculosis isolate 19806 after 4 days by microplate Alamar blue assay. In kind it is functional. The note with it: isolate 19806, 96 h.
Data set [4] concerns Mycobacterium tuberculosis. Description: Antimycobacterial activity against Mycobacterium tuberculosis isolate 19769 after 4 days by microplate Alamar blue assay. In kind it is functional. To be noted: isolate 19769, 96 h.
The test system of data set [5] is Mycobacterium tuberculosis. Description: Antimycobacterial activity against Mycobacterium tuberculosis isolate 19809 after 4 days by microplate Alamar blue assay. The note with it: isolate 19809, 96 h. In kind it is functional.
Data set [6] deals with Mycobacterium tuberculosis. Description: Antimycobacterial activity against Mycobacterium tuberculosis H37Rv ATCC 27294 after 4 days by microplate Alamar blue assay. The format is functional. The note with it: H37Rv ATCC 27294, 96 h.
Data set [7] deals with Mycobacterium tuberculosis. Description: Antimycobacterial activity against Mycobacterium tuberculosis isolate 11168 after 4 days by microplate Alamar blue assay. The format is functional. To be noted: isolate 11168, 96 h.
Data set [8] has as its system Mycobacterium tuberculosis. Description: Antimycobacterial activity against Mycobacterium tuberculosis isolate 19810 after 4 days by microplate Alamar blue assay. To be noted: isolate 19810, 96 h. In kind it is functional.
Data set [9] concerns Mycobacterium tuberculosis. Description: Antimycobacterial activity against Mycobacterium tuberculosis isolate 19863 after 4 days by microplate Alamar blue assay. To be noted: isolate 19863, 96 h. In kind it is functional.
Data set [10] relates to Mycobacterium tuberculosis. Description: Antimycobacterial activity against Mycobacterium tuberculosis isolate 19852 after 4 days by microplate Alamar blue assay. In kind it is functional. The note with it: isolate 19852, 96 h.
Data set [11] deals with Mycobacterium tuberculosis. Description: Antimycobacterial activity against Mycobacterium tuberculosis isolate 19675 after 4 days by microplate Alamar blue assay. In kind it is functional. The note with it: isolate 19675, 96 h.
Data set [12] deals with Mycobacterium tuberculosis. Description: Antimycobacterial activity against Mycobacterium tuberculosis H37Rv ATCC 27294. In kind it is functional.
Data set [13] in a line: Toxicity in po dosed BALB/c mouse. The format is organism-based. To be noted: in vivo.

For `CN(C)C(=O)/C=C/C(=O)c1ccc(-c2ccccc2)cc1`, the MIC in [1] is 0.25 µg/mL (≈ 0.895 µM); in data set [2], 0.23 µg/mL (≈ 0.823 µM); in data set [3], 0.23 µg/mL (≈ 0.823 µM); in data set [4], 0.43 µg/mL (≈ 1.54 µM); in data set [5], 0.48 µg/mL (≈ 1.72 µM); in [6], 0.125 µg/mL (≈ 0.447 µM). Besides, the minimal inhibitory concentration (MIC) amounted to 0.05 µg/mL (≈ 0.179 µM) in [7]; 0.12 µg/mL (≈ 0.43 µM) in [8]; 0.23 µg/mL (≈ 0.823 µM) in [9]; 0.19 µg/mL (≈ 0.68 µM) in data set [10]; 0.45 µg/mL (≈ 1.61 µM) in data set [11].
As for `COC(=O)/C=C/C(=O)c1ccc(OC)cc1`, the MIC in data set [12] and in data set [6] was 0.25 µg/mL (≈ 1.14 µM) each time. The molecule further showed a 50% lethal dose (LD50) in [13] of 568 mg/kg.
On to `CCN(C)C(=O)/C=C/C(=O)c1ccc2c(c1)OCO2`, for which, in [6], the MIC was above 2 µg/mL.
The same measure, in the same setting: next, `CCOC(=O)/C=C/C(=O)c1ccc(OC)cc1`: 0.46 µg/mL (≈ 1.96 µM); `CC(C)OC(=O)/C=C/C(=O)c1ccc(Oc2ccccc2)cc1`: 1.69 µg/mL (≈ 5.45 µM).
Still for that read-out and setting: the figure for `CN(C)C(=O)/C=C/C(=O)c1ccc(Cl)c(Cl)c1` is 0.84 µg/mL (≈ 3.09 µM).
As for `CCCN(CCC)C(=O)/C=C/C(=O)c1cccc(Br)c1`, the MIC in data set [6] is above 2 µg/mL.
On the same count and under the same terms, the figure for `CC(=O)/C=C/C(=O)OCCNC(=O)OC(C)(C)C` is above 4 µg/mL; for `CCOc1ccc(C(=O)/C=C/C(=O)N(C)C)cc1` it is 0.48 µg/mL (≈ 1.94 µM); for `COc1ccc(C(=O)/C=C/C(=O)OC(C)C)cc1OC` it is 1.94 µg/mL (≈ 6.97 µM).
On the same count and under the same terms, next, `COC(=O)/C=C/C(=O)c1ccc2c(c1)OCO2`: 0.38 µg/mL (≈ 1.62 µM); `COc1ccccc1C(=O)/C=C/C(=O)O`: above 4 µg/mL; `COC(=O)/C=C/C(=O)c1ccc2c(c1)CCO2`: 0.84 µg/mL (≈ 3.62 µM).
Still for that read-out and setting: the figure for `O=C(O)/C=C/C(=O)c1ccc2c(c1)CCO2` is above 4 µg/mL.
With `CCCN(CCC)C(=O)/C=C/C(=O)c1ccccc1OC`, the MIC in [6] is above 2 µg/mL.
The same measure, in the same setting: next, `CCOC(=O)/C=C/C(=O)c1ccc(Oc2ccccc2)cc1`: 1.52 µg/mL (≈ 5.13 µM); `CCCN(CCC)C(=O)/C=C/C(=O)c1ccc(Cl)cc1Cl`: above 2 µg/mL.
Same read-out and setting: next, `O=C(O)/C=C/C(=O)c1ccc([N+](=O)[O-])cc1`: above 4 µg/mL; `CCOc1ccc(C(=O)/C=C/C(=O)O)cc1`: above 4 µg/mL.
The molecule `COC(=O)/C=C/C(=O)c1ccc(C)cc1` registered an MIC in data set [6] of 0.37 µg/mL (≈ 1.81 µM).
Still for that read-out and setting: the figure for `CN(C)C(=O)/C=C/C(=O)c1cccc(F)c1` is 1.84 µg/mL (≈ 8.32 µM); for `O=C(O)/C=C/C(=O)c1ccc(Cl)cc1Cl` it is above 4 µg/mL.
In turn, `CCN(C)C(=O)/C=C/C(=O)c1ccc(OC)cc1` came in with an MIC in data set [6] of 0.93 µg/mL (≈ 3.76 µM).
The same measure, in the same setting: the figure for `CCN(C)C(=O)/C=C/C(=O)c1cccc(OC)c1` is 1.88 µg/mL (≈ 7.6 µM); for `CC(C)OC(=O)/C=C/C(=O)c1ccc([N+](=O)[O-])cc1` it is 0.5 µg/mL (≈ 1.9 µM); for `Cc1ccc(C(=O)/C=C/C(=O)OC(C)C)cc1` it is 0.77 µg/mL (≈ 3.31 µM).
`CCOc1ccc(C(=O)/C=C/C(=O)OC)cc1` yielded an MIC in [6] of 0.41 µg/mL (≈ 1.75 µM).
The same measure, in the same setting: the figure for `CC(C)OC(=O)/C=C/C(=O)C1CCCCC1` is above 4 µg/mL; for `COC(=O)/C=C/C(=O)c1ccc(Oc2ccccc2)cc1` it is 0.87 µg/mL (≈ 3.08 µM); for `O=C(O)/C=C/C(=O)c1ccccc1` it is above 4 µg/mL.
Same read-out and setting: the figure for `CN(C)C(=O)/C=C/C(=O)c1ccccc1[N+](=O)[O-]` is 1.51 µg/mL (≈ 6.08 µM); for `CCN(C)C(=O)/C=C/C(=O)c1ccc(-c2ccccc2)cc1` it is 0.49 µg/mL (≈ 1.67 µM).
Same read-out and setting: the figure for `CCCN(CCC)C(=O)/C=C/C(=O)c1cccc(Cl)c1` is 1.91 µg/mL (≈ 6.5 µM); for `COc1ccc(C(=O)/C=C/C(=O)O)cc1` it is above 4 µg/mL; for `CCCN(CCC)C(=O)/C=C/C(=O)c1ccc([N+](=O)[O-])cc1` it is 1.89 µg/mL (≈ 6.21 µM).
The molecule `CC(C)(C)OC(=O)NCCOC(=O)/C=C/C(=O)c1ccccc1` returned an MIC in data set [6] above 4 µg/mL.
Consider `CCN(C)C(=O)/C=C/C(=O)c1cccc(C(F)(F)F)c1`, for which, in [6], the MIC is above 2 µg/mL.
As to `COc1ccc(C(=O)/C=C/C(=O)OCCNC(=O)OC(C)(C)C)cc1`, the minimal inhibitory concentration (MIC) in data set [6] was above 4 µg/mL.
In turn, `Cc1ccc(C(=O)/C=C/C(=O)O)cc1` displayed an MIC in data set [6] above 4 µg/mL.
In [6], `CCOC(=O)/C=C/C(C)=O` came in with a minimum inhibitory concentration (MIC) of 3.51 µg/mL (≈ 24.7 µM).
On to `CCOC(=O)/C=C/C(=O)c1ccc(C)cc1`, for which the minimal inhibitory concentration (MIC) in data set [6] was above 4 µg/mL.
In data set [6], `CC(C)(C)OC(=O)NCCOC(=O)/C=C/C(=O)c1ccc([N+](=O)[O-])cc1` returned an MIC above 4 µg/mL.
The molecule `CCN(C)C(=O)/C=C/C(=O)c1ccccc1F` came in with a minimum inhibitory concentration (MIC) in [6] of 0.24 µg/mL (≈ 1.02 µM).
On the same count and under the same terms, next, `CCCN(CCC)C(=O)/C=C/C(=O)c1cccc(OC)c1`: above 2 µg/mL; `CC(C)(C)OC(=O)NCCOC(=O)/C=C/C(=O)C1CC1`: 1.45 µg/mL (≈ 5.12 µM).
As for `CCOC(=O)/C=C/C(=O)c1ccc2c(c1)OCO2`, in [6], the MIC was 0.49 µg/mL (≈ 1.97 µM). Against the preceding molecule, the MIC is about 3-fold lower.
`COC(=O)/C=C/C(=O)c1ccccc1OC` showed a minimal inhibitory concentration (MIC) in data set [6] of 0.99 µg/mL (≈ 4.5 µM).
In data set [6], `CCOC(=O)/C=C/C(=O)c1ccco1` registered an MIC of 1.09 µg/mL (≈ 5.61 µM).
Same read-out and setting: next, `COC(=O)/C=C/C(=O)c1cccc(OC)c1`: 0.39 µg/mL (≈ 1.77 µM); `CCOC(=O)/C=C/C(=O)C1CC1`: above 4 µg/mL.
